Source: ChEMBL document CHEMBL2074155, “Transport of antimony salts by Arabidopsis thaliana protoplasts over-expressing the human multidrug resistance-associated protein 1 (MRP1/ABCC1)” (FEBS Lett, 2006)

Experiments:
[1] = molecular target: T1, Multidrug resistance-associated protein 1 (Homo sapiens, UniProt P33527); test: TP_TRANSPORTER: inhibition of Sb(III) accumulation in the presence of glibenclamid at a concentration of 10uM in MRP1-expressing MCP cells; format: functional, subcellular, Protoplasts; conditions: arabidopsis thaliana
T1 sequence (P33527 whole entry): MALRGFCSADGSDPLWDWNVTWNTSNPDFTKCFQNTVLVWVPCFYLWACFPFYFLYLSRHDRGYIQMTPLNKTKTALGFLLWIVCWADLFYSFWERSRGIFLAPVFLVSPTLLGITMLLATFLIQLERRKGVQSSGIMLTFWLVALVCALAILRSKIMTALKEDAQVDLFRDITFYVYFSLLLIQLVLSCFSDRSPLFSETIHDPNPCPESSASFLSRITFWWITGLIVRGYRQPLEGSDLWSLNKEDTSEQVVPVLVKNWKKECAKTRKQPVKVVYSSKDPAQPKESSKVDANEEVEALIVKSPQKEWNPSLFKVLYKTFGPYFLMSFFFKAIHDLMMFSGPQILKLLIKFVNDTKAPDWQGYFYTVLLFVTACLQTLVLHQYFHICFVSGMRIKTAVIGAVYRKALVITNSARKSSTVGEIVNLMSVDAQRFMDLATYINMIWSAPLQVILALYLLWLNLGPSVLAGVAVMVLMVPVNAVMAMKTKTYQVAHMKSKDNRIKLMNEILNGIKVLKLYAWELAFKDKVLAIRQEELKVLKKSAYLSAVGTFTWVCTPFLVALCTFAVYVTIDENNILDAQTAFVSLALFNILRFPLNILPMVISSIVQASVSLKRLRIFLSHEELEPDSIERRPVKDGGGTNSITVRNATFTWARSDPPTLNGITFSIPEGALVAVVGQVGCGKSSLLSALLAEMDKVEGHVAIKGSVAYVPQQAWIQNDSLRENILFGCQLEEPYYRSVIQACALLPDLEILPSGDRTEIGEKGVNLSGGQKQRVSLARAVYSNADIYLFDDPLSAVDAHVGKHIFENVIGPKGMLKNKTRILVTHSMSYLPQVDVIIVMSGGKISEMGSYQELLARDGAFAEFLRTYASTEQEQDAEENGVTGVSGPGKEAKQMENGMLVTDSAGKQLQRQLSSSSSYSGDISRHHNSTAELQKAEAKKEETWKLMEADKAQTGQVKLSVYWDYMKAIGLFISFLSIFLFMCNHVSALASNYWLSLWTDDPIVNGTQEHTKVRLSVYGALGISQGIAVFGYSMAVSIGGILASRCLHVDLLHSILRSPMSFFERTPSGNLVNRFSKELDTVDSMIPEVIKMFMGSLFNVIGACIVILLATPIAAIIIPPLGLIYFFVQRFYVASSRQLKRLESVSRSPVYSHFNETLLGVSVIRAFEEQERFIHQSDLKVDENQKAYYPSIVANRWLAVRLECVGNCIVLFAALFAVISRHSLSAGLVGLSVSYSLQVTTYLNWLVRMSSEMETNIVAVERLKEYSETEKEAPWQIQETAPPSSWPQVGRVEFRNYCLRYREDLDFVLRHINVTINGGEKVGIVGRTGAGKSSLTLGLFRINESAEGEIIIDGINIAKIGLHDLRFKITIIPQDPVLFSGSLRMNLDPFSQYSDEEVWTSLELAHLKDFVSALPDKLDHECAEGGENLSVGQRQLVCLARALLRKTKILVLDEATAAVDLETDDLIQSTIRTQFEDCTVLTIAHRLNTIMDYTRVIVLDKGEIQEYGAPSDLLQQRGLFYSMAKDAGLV

[2] = molecular target: T1, Multidrug resistance-associated protein 1; test: TP_TRANSPORTER: cell accumulation in MRP1-expressing MCP cells; format: functional, Mesophyll cell protoplasts; conditions: arabidopsis thaliana

Activity [1] | Activity [2] | Compound
inhibitor [+] | – | COc1ccc(Cl)cc1C(=O)NCCc1ccc(S(=O)(=O)NC(=O)NC2CCCCC2)cc1 [GLYBURIDE]
– | substrate [+] | ANTIMONY (III) ION
